Results taken from patent US11918691B2, “Local delivery of antineoplastic particles in combination with systemic delivery of immunotherapeutic agents for the treatment of cancer” (CRITITECH, INC., priority 2017, dated 2024).

Assays:
[1] = tested on: human renal cell adenocarcinoma (786-0 cell line); test: Rat xenograft model of human renal cell adenocarcinoma: histology and immunohistochemistry of residual tumors; format: in vivo, Sprague-Dawley Rag2; Il2rg null (SRG) rat
Description: Microscopic Examination: Tissues fixed with 10% NBF were embedded in paraffin. Each tumor was cut into 2-3 pieces and embedded and sectioned together.
The lymphohistiocytic infiltrate density based on assessment of […] and immunohistochemical staining with CD11b, graded semi quantitatively is shown in Table 31.
A review was conducted on the morphologic and immunohistochemical features of a subset of 14 female rats from the renal cell carcinoma study aimed to assess the efficacy of intratumoral NanoDoce® (the total study contained 30 animals). […] The NanoDoce® group was separated into three groups based on the number of administered cycles: group 1 (1 cycle; 3 animals), group 2 (2 cycles; 3 animals), and group 3 (3 cycles; 2 animals).

[2] = Rat xenograft model of human renal cell adenocarcinoma: docetaxel concentration in tumor tissue, LC-MS/MS; format: in vivo, Sprague-Dawley Rag2; Il2rg null (SRG) rat; conditions: 38 days following the last of three weekly cycles IV (5-[…]); LOQ 1.00 ng/g
Description: A calibration curve, prepared in rat control tumor tissue homogenate, was analyzed at the beginning and the end of each analytical run. Two sets of quality control (QC) samples were prepared at four concentration levels (low, mid-1, mid-2 and high) and were used to ensure reliability of the assay.

[3] = tested on: UM-UC-3 bladder cancer cell line (ATCC-CRL-1749) tumors; test: Human bladder cancer (UM-UC-3) mouse xenograft study: tumor volume, body weight, histology; format: in vivo, Hsd:Athymic Nude-Foxn1nu nude mice
Description: Tumor volume was determined with calipers. […] Animals were weighed 2×/week.
At day 18 after tumor implant, when average tumor size was between 50-325 mm^3, animals were sorted into five groups with equal average tumor sizes and were treated as shown in Table 25 below.
For IT administration (Vehicle/NANODOCE®), injections (using 27 G, ½″ needle) were administered at three sites within the tumor (total calculated injection volume based on 40 mg/mL NANODOCE® stock and 25 g mouse=63 μL; split evenly across the three injection sites) to maximize distribution of the test formulation throughout the tumor. The second treatments (2nd cycle) occurred 7 days following first treatment (1st cycle) and third treatments (3rd cycle) occurred 14 days following the first treatment. The docetaxel solution IV was administered via the tail vein.
The test formulations were prepared as follows: • Vehicle (Control): Diluted 1 ml of the 1% Polysorbate 80/8% Ethanol in normal saline (0.9% Sodium Chloride for Injection) reconstitution solution with 1.5 mL of normal saline (0.9% Sodium Chloride for Injection, USP). The final concentration of polysorbate 80 was 0.4% and the final concentration of ethanol was 3.2% in the Vehicle. • NANODOCE® Suspension: Added 1 ml of the 1% Polysorbate 80/8% Ethanol in normal saline (0.9% Sodium Chloride for Injection) reconstitution solution into the vial of NANODOCE® particles powder (100 mg/60 cc vial). The mean particle size (number) of the NANODOCE® particles powder was 1.0 micron. Vigorously hand shook the vial with inversions for 1 minute. […] Vortexed to mix.

[4] = tested on: human renal cell adenocarcinoma (786-0 cell line); test: Rat xenograft model of human renal cell adenocarcinoma: tumor volume, body weight, observations; format: in vivo, Sprague-Dawley Rag2; Il2rg null (SRG) rat; conditions: IV, 3 weekly cycles

animals evaluated with a detectable docetaxel level in tumor tissue [2] | docetaxel level in tumor tissue [2] [ng/g] | Compound | Number of animals with <5% of tissue showing necrosis ([1]; IV docetaxel, 2 animals) | Number of animals with Mild lymphohistiocytic infiltrate density (H&E and CD11b IHC, semi quantitative) ([1]; IV docetaxel, 2 animals) | histology general observations (H&E) ([3]; Docetaxel Solution IV 3 cycles) | initial animal weight loss compared with NanoDoce IT 1, 2 and 3 cycles ([3]; IV 3 cycles) | signs of peripheral neuropathy compared with NanoDoce IT 3 cycles ([3]; IV 3 cycles) | treatment effect relative to initial tumor size ([3]; IV 3 cycles) | tumor volumes over time ([3]; IV 3 cycles (weekly), 61 days) | tumor growth compared to vehicle control [4] | histology (H&E) compared with vehicle control ([1]; IV 3 cycles, female rat) | Number of animals with residual viable tumor >10 mm (maximum cross-sectional dimension of viable carcinoma on slide) ([1]; IV docetaxel QWX3, 2 animals evaluated) | residual viable carcinoma nodule, maximum dimension on the slide ([1]; both IV docetaxel animals) | morphologic and immunohistochemical appearance ([1]; two IV docetaxel cases (3 cycles))
 |  | CC(=O)O[C@@]12CO[C@@H]1C[C@H](O)[C@@]1(C)C(=O)[C@H](O)C3=C(C)[C@@H](OC(=O)[C@H](O)[C@@H](NC(=O)OC(C)(C)C)c4ccccc4)C[C@@](O)([C@@H](OC(=O)c4ccccc4)[C@H]21)C3(C)C [Doce] | 2 | 2 |  |  |  |  |  |  |  |  |  | 
one of four | 21.8 | CC(=O)OC12CO[C@@H]1C[C@H](O)[C@@]1(C)C(=O)[C@H](O)C3=C(C)[C@@H](OC(=O)[C@H](O)[C@@H](NC(=O)OC(C)(C)C)c4ccccc4)C[C@@](O)([C@@H](OC(=O)c4ccccc4)[C@H]21)C3(C)C (some centres unmarked) [Docetaxel, docetaxel] |  |  | many viable appearing tumor masses with some macrophage and occasional lymphocytic response along with some tumor necrosis | generally greater | greater signs of peripheral neuropathy | somewhat effective at treating small tumors, but not very effective in treating large tumors | decreased initially for dosages of NanoDoce® IT 1 cycle and Docetaxel IV 3 cycles, but subsequently increased | partial tumor growth inhibition | no difference | 2 | greater than 10 mm | identical morphologic and immunohistochemical appearance to that seen in the control and IT vehicle groups
